From US6417164B1, “Treatment of type II diabetes mellitus with amylin agonists” (Amylin Pharmaceuticals, Inc., priority 1995, dated 2002)
Ends that are not written are not given here.

Columns and labels:
[1] = Solubility and stability characteristics compared to human amylin; type: physicochemical
From the text: (§1) These preferred compounds include ^25Pro^26Val^28,29Pro-h-amylin, ^25,28,29Pro-h-amylin (also referred to herein as “AC-0137”), and ^18Arg^25,28Pro-h-amylin.

[2] = tested on: insulin-stimulated glycogen synthesis in soleus muscle; assay: Soleus muscle assay; parameters: species or system rat
Method: Assays of biological activity of amylin agonists, including amylin agonist analogue preparations, in the soleus muscle are performed using previously described methods (Leighton, B. and Cooper, G. J. S., Nature, 335:632-635 (1988); Cooper, G. J. S., et al. Proc. Natl. Acad. Sci. USA 85:7763-7766 (1988)). In summary, amylin agonist activity is assessed by measuring the inhibition of insulin-stimulated glycogen synthesis in soleus muscle. Amylin antagonist activity is assessed by measuring the resumption of insulin-stimulated glycogen synthesis in the presence of 100 nM rat amylin and an amylin antagonist. Concentrations of peptide dissolved in carrier-free buffers are determined by quantitative amino acid analysis, as described therein. The ability of compounds to act as agonists in this assay is determined by measuring EC50 values. Standard errors are determined by fitting of sigmoidal dose response curves using a four parameter logistic equation (De Lean, A., Munson, P. J., Guardabasso, V. and Rodbard, D. (1988) ALLFIT, Version 2.7, National Institute of Child Health and Human Development, N.I.H. Bethesda, Md., 1 diskette). A number of amylin agonists have been characterized using these biological assays.

[3] = biological target: T1, membrane-bound amylin receptors (Rattus norvegicus, UniProt P32214+Q9JJ74); assay: Receptor binding assay (competition with 125I Bolton Hunter rat amylin)
T1 construct: A preferred source of the membrane preparations used in the assay is the basal forebrain which comprises membranes from the nucleus accumbens; from tissue; host or cells: basal forebrain membranes (nucleus accumbens and surrounding regions)
T1 sequence (P32214 25-516): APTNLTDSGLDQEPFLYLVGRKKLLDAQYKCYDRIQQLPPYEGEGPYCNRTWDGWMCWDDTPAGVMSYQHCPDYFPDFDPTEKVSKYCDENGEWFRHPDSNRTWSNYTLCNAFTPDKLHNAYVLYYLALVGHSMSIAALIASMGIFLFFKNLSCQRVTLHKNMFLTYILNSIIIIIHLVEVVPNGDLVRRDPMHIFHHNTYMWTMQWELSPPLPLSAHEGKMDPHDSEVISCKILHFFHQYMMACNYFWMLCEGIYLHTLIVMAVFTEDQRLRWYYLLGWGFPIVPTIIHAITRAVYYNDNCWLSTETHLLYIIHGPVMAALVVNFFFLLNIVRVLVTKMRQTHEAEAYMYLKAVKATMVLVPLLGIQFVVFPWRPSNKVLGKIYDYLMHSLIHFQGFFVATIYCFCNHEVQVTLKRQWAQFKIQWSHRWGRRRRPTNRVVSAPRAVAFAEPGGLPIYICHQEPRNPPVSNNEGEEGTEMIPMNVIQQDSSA
T1 sequence (Q9JJ74 27-148): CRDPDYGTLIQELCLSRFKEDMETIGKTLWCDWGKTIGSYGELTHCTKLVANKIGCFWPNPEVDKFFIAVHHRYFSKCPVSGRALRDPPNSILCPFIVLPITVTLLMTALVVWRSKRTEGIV
From the text: The receptor binding assay is described in U.S. Pat. No. 5,264,372, issued Nov. 23, 1993, the disclosure of which is incorporated herein by reference. The receptor binding assay is a competition assay which measures the ability of compounds to bind specifically to membrane-bound amylin receptors. A preferred source of the membrane preparations used in the assay is the basal forebrain which comprises membranes from the nucleus accumbens and surrounding regions. Compounds being assayed compete for binding to these receptor preparations with ^125I Bolton Hunter rat amylin. Competition curves, wherein the amount bound (B) is plotted as a function of the log of the concentration of ligand are analyzed by computer, using analyses by nonlinear regression to a 4-parameter logistic equation (Inplot program; GraphPAD Software, San Diego, Calif.) or the ALLFIT program of DeLean et. al. (ALLFIT, Version 2.7 (NIH, Bethesda, Md. 20892)). Munson, P. and Rodbard, D., Anal. Biochem. 107:220-239 (1980).

[4] = tested on: treated test animals; assay: Amylin activity in vivo in treated test animals
From the text: as §1

stability characteristics [1]	competition with amylin in the receptor binding assay [3]	Compound	amylin agonist action in the soleus muscle assay [2]	antagonist activity as measured by the soleus muscle assay [2]	amylin activity in vivo [4]
more desirable		CC[C@H](C)[C@H](NC(=O)[C@@H]1CCCN1C(=O)CNC(=O)[C@H](Cc1ccccc1)NC(=O)[C@H](CC(N)=O)NC(=O)[C@H](CC(N)=O)NC(=O)[C@H](CO)NC(=O)[C@H](CO)NC(=O)[C@H](Cc1c[nH]cn1)NC(=O)[C@@H](NC(=O)[C@H](CC(C)C)NC(=O)[C@H](Cc1ccccc1)NC(=O)[C@H](CC(N)=O)NC(=O)[C@H](C)NC(=O)[C@H](CC(C)C)NC(=O)[C@H](CCCNC(=N)N)NC(=O)[C@H](CCC(N)=O)NC(=O)[C@@H](NC(=O)[C@H](C)NC(=O)[C@@H]1CSSC[C@H](NC(=O)[C@@H](N)CCCCN)C(=O)N[C@@H](CC(N)=O)C(=O)N[C@@H]([C@@H](C)O)C(=O)N[C@@H](C)C(=O)N[C@@H]([C@@H](C)O)C(=O)N1)[C@@H](C)O)C(C)C)C(=O)N[C@@H](CC(C)C)C(=O)N1CCC[C@H]1C(=O)N1CCC[C@H]1C(=O)N[C@H](C(=O)N[C@@H](CC(N)=O)C(=O)N[C@H](C(=O)NCC(=O)N[C@@H](CO)C(=O)N[C@@H](CC(N)=O)C(=O)N[C@H](C(=O)N[C@@H](Cc1ccc(O)cc1)C(N)=O)[C@@H](C)O)C(C)C)[C@@H](C)O [AC137, ^25,28,29Pro-h-amylin]			
	found to compete with amylin	^18Arg^25,28,29Pro-h-amylin	shown to act as amylin agonists	negligible antagonist activity	
	found to compete with amylin	des-^1Lys^18Arg^25,28,29Pro-h-amylin	shown to act as amylin agonists	negligible antagonist activity	
	found to compete with amylin	des-^1Lys^25,28,29Pro-h-amylin	shown to act as amylin agonists	negligible antagonist activity	

The next lines start with the compound.

Compound	stability characteristics [1]	competition with amylin in the receptor binding assay [3]	amylin agonist action in the soleus muscle assay [2]	antagonist activity as measured by the soleus muscle assay [2]	amylin activity in vivo [4]
^25Pro^26Val^25,28Pro-h-amylin		found to compete with amylin	shown to act as amylin agonists	negligible antagonist activity	
^28Pro-h-amylin (KCNTATCATQRLANFLVHSSNNFGAILPSTNVGSNTY; ends and bridges not checked; cysteine pairing not given here; UniProt P10997 34-70, looked up, variant S28P) [amylin agonist analogue of human amylin]					marked hyperlactemia followed by hyperglycemia
des-^1Lys-h-amylin [des-^1Lys-hamylin]					marked hyperlactemia followed by hyperglycemia
des-^1Lys^18Arg^25,28Pro-h-amylin		found to compete with amylin	shown to act as amylin agonists	negligible antagonist activity	marked hyperlactemia followed by hyperglycemia
